The target of assay [1] is T1, Avi-KRAS G12D (1-169) GppNHp/RAF1 RBD-3×FLAG (52-151) (Homo sapiens, UniProt P01116, G12D).
T1 construct: Avi-KRAS G12D (1-169) GppNHp
The assay can be described thus: HTRF Raf1-KRAS G12D-GppNHp disruption assay. The format is biochemical. The settings on record: 1 h incubation. The protocol: (§1) The HTRF assay employed the following protocol:
(§2) Compounds were dispensed in assay plate (384-well, Grenier Bione #784075) using Echo (model 555) with dose response settings: 200 nL final volume, titration from 100 μM as a 10-point dilution series. Protein mix was prepared in assay buffer, and dispensed on plates, 10 μL per well, then incubated for 1 h at room temperature, with 700 rpm shaking. Reagents mix was prepared and dispensed on plates, 10 μL per well, then incubated for 1 h at room temperature, with 700 rpm shaking.
(§3) Plates were analyzed on an Envision plate reader using the following setting: Excitation 320 nm, Bandwidth […]; Emission 615 nm, Bandwidth […], Gain 100%, Flashes 100, Lag 60 μs. Data was reported as percentage of activity, with DMSO as 100%. Data was plotted and analyzed using Prism 8.
In general terms: TR-FRET usually uses a lanthanide donor and a delayed reading to cut background.

The target in assay [2] is T2, Avi-KRAS G12D/Q25A (1-169) GppNHp/3×FLAG-PI3KCA (157-299) (Homo sapiens, UniProt P01116, G12D/Q25A).
T2 construct: Avi-KRAS G12D/Q25A (1-169) GppNHp
The assay is described as follows: HTRF PI3KCA-KRAS G12D/Q25A-GppNHp disruption assay. It is filed as biochemical. Particulars: 1 h incubation. On the procedure:
as §1, §2, §3

T1 sequence (P01116 1-169 isoform P01116-2 G12D limits assumed): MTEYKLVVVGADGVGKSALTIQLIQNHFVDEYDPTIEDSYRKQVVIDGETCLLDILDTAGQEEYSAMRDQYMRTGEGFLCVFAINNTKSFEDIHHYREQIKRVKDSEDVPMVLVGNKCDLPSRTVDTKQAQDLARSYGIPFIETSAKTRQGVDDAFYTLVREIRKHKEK
T2 sequence (P01116 1-169 isoform P01116-2 G12D/Q25A limits assumed): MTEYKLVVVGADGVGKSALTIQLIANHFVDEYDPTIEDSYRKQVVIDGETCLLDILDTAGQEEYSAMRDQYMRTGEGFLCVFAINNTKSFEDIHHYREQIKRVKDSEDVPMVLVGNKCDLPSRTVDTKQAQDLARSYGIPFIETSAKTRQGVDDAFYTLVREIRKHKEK

`CN(c1nc(OCC23CCCN2CCC3)nc2c(F)c(-c3ccc(F)c4sc(N)nc34)c(C(F)(F)F)cc12)[C@H]1C[C@H]2CC[C@@H]1N2` (atropisomer, axis not shown) [Compound 271]: the half-maximal inhibitory concentration (IC50) was 0.1 to 1 µM in assay [1] and 1 to 10 µM in assay [2].
Taken in the same sequence, the figures for `CN1CCC[C@H]1COc1nc(N2CCNCC2)c2cc(-c3cnn(C)c3)c(-c3ccc(F)c4sc(N)nc34)c(F)c2n1` [Compound 176] were 10 to 30 µM and 10 to 30 µM.
In the case of `CC(=O)N1CC(Nc2nc(OC[C@@H]3CCCN3C)nc3c(F)c(-c4ccc(F)c5sc(N)nc45)c(Cl)cc23)C1` [Compound 67], the concentration for half-maximal inhibition (IC50) in assay [1] and in assay [2] was 10 to 30 µM each time.
Regarding `CN(c1nc(OCC23CCCN2CCC3)nc2c(F)c(-c3ccc(F)c4sc(N)nc34)c(C(F)(F)F)cc12)[C@@H]1CCNC1` (single isomer, unassigned) [Compound 238], the IC50 in assay [1] and in assay [2] was 1 to 10 µM throughout.
In the case of `C[C@@H]1CN(c2nc(OC[C@]34CCCN3C[C@H](F)C4)nc3c(F)c(-c4ccc(F)c5sc(N)nc45)c(C(F)(F)F)cc23)[C@@H](C)CN1` [Compound 214], the figures for the IC50 in assay [1] and in assay [2] were 0.1 to 1 µM and 10 to 30 µM, respectively.
As for `CN1C[C@H](F)C[C@H]1COc1nc(N2CCNCC2)c2cc(Cl)c(-c3ccc(F)c4sc(N)nc34)c(F)c2n1` [Compound 128], the IC50 in assay [1] and in assay [2] was 10 to 30 µM throughout.
In the case of `CN1CCC[C@H]1COc1nc(NCCN)c2cc(C(F)(F)F)c(-c3ccc(F)c4sc(N)nc34)c(F)c2n1` [Compound 149], the half-inhibitory concentration (IC50) in assay [1] and in assay [2] was 1 to 10 µM in each case.
Regarding `Nc1nc2c(-c3c(Cl)cc4c(N5CCNCC5)nc(OCC56CCCN5CCC6)nc4c3F)ccc(F)c2s1` [Compound 82], the IC50 in assay [1] and in assay [2] was 1 to 10 µM each time.
As to `C[C@@H]1CN(c2nc(OC[C@@]34CCCN3C[C@H](F)C4)nc3c(F)c(-c4ccc(F)c5sc(N)nc45)c(OC(F)F)cc23)[C@@H](C)CN1` [Compound 282, 4-(6-(difluoromethoxy)-4-((2S,5R)-2,5-dimethylpiperazin-1-yl)-8-fluoro-2-(((2R,7aS)-2-fluorotetrahydro-1H-pyrrolizin-7a(5H)-yl)methoxy)quinazolin-7-yl)-7-fluorobenzo[d]thiazol-2-amine], the concentration for half-maximal inhibition (IC50) in assay [1] and in assay [2] was 1 to 10 µM throughout.
As to `Nc1nc2c(-c3c(C(F)(F)F)cc4c(N5CCNCC5)nc(OCC56CCCN5CCC6)nc4c3F)ccc(F)c2o1` [Compound 189], the half-maximal inhibitory concentration (IC50) in assay [1] and in assay [2] was 1 to 10 µM in each case.
For the compound `CNc1nc2c(-c3c(Cl)cc4c(NCCN)nc(OC[C@@H]5CCCN5C)nc4c3F)ccc(F)c2s1` [Compound 87], the IC50 in assay [1] and in assay [2] was 10 to 30 µM in each case.
For `CN1CCC[C@H]1COc1nc(NC2CN(C(=O)CN)C2)c2cc(C(F)(F)F)c(-c3ccc(F)c4sc(N)nc34)c(F)c2n1` [Compound 114], the half-inhibitory concentration (IC50) in assay [1] and in assay [2] was 1 to 10 µM throughout.
Regarding `CN1CCC[C@H]1COc1nc(N2CC3CNCC3C2)c2cc(Cl)c(-c3ccc(F)c4sc(N)nc34)c(F)c2n1` (stereo partly drawn) [Compound 71], the IC50 in assay [1] and in assay [2] was 10 to 30 µM each time.
As for `CN1CCC[C@H]1COc1nc(N2CC(N)C2)c2cc(Cl)c(-c3ccc(F)c4sc(N)nc34)c(F)c2n1` [Compound 112], the IC50 in assay [1] and in assay [2] was 1 to 10 µM in each case.
Turning to `CN(C)CCNc1nc(OC[C@@H]2CCCN2C)nc2c(F)c(-c3ccc(F)c4sc(N)nc34)c(Cl)cc12` [Compound 75], the IC50 in assay [1] is 1 to 10 µM; in assay [2], 10 to 30 µM.
On to `CN(c1nc(OCC23CCCN2CCC3)nc2c(F)c(-c3ccc(F)c4sc(N)nc34)c(C(F)(F)F)cc12)[C@@H]1CCN(C(=O)C2CN2)C1` (stereo partly drawn) [Compound 230], for which the half-inhibitory concentration (IC50) in assay [1] and in assay [2] was 1 to 10 µM in each case.
Regarding `N#Cc1cc2c(N3CCNCC3)ncnc2c(F)c1-c1ccc(F)c2sc(N)nc12` [Compound 94, 7-(2-amino-7-fluorobenzo[d]thiazol-4-yl)-8-fluoro-4-(piperazin-1-yl)quinazoline-6-carbonitrile], the IC50 in assay [1] and in assay [2] was 10 to 30 µM in each case.
Take `CCc1cc2c(N3CCNCC3)nc(OC[C@@H]3CCCN3C)nc2c(F)c1-c1ccc(F)c2sc(N)nc12` [Compound 177, 4-(6-ethyl-8-fluoro-2-(((S)-1-methylpyrrolidin-2-yl)methoxy)-4-(piperazin-1-yl)quinazolin-7-yl)-7-fluorobenzo[d]thiazol-2-amine]: the IC50 in assay [1] and in assay [2] was 10 to 30 µM each time.
Turning to `CN1C[C@H](F)C[C@H]1COc1nc(NC2CNC2)c2cc(C(F)(F)F)c(-c3ccc(F)c4sc(N)nc34)c(F)c2n1` [Compound 119], the concentration for half-maximal inhibition (IC50) in assay [1] and in assay [2] was 1 to 10 µM in each case.
Regarding `CN1CCC(c2nc(N3CCNCC3)c3cc(Cl)c(-c4ccc(F)c5sc(N)nc45)c(F)c3n2)CC1` [Compound 101], the 50% inhibitory concentration (IC50) in assay [1] and in assay [2] was 10 to 30 µM in each case.
In the case of `CN1CCC[C@H]1COc1nc(N(CCO)C2CNC2)c2cc(Cl)c(-c3ccc(F)c4sc(N)nc34)c(F)c2n1` [Compound 208], the IC50 in assay [1] and in assay [2] was 10 to 30 µM in each case.
For `CN(c1nc(OCC23CCCN2CCC3)nc2c(F)c(-c3ccc(F)c4sc(N)nc34)c(C(F)(F)F)cc12)[C@@H]1CCN(C(N)=O)C1` (atropisomer, axis not shown) [Compound 278], the IC50 in assay [1] and in assay [2] was 1 to 10 µM each time.
In the case of `CN1C[C@H](F)C[C@H]1COc1nc(N2CCNCC2)c2cc(C(F)(F)F)c(-c3ccc(F)c4sc(N)nc34)c(F)c2n1` [Compound 140], the IC50 in assay [1] lay in the range of 1 to 10 µM; in assay [2], 10 to 30 µM.
In the case of `COc1cc2c(N3CCNCC3)nc(OCC34CCCN3CCC4)nc2c(F)c1-c1ccc(F)c2sc(N)nc12` [Compound 216, 7-fluoro-4-(8-fluoro-6-methoxy-4-(piperazin-1-yl)-2-((tetrahydro-1H-pyrrolizin-7a(5H)-yl)methoxy)quinazolin-7-yl)benzo[d]thiazol-2-amine], the IC50 in assay [1] and in assay [2] was 1 to 10 µM each time.
As for `CN1CCC[C@H]1COc1nc(NCCN)c2cc(Cl)c(-c3ccc(F)c4nc(N)sc34)c(F)c2n1` [Compound 107], the IC50 in assay [1] and in assay [2] was 10 to 30 µM throughout.
As for `C[C@@H]1CN(c2nc(OC[C@@]34CCCN3C[C@H](F)C4)nc3c(F)c(-c4ccc(F)c5sc(N)nc45)c(C(F)F)cc23)[C@@H](C)CN1` [Compound 302], the IC50 in assay [1] and in assay [2] was 1 to 10 µM in each case.
On to `C[C@H]1CN(c2nc(OC[C@@H]3CCCN3C)nc3c(F)c(-c4ccc(F)c5sc(N)nc45)c(Cl)cc23)CCN1` [Compound 84], for which the 50% inhibitory concentration (IC50) in assay [1] and in assay [2] was 10 to 30 µM each time.
`C[C@@H]1CN(c2nc(OC[C@@]34CCCN3C[C@@H](F)C4)nc3c(F)c(-c4ccc(F)c5sc(N)nc45)c(C(F)(F)F)cc23)CCN1` [Compound 225]: the results for the IC50 in assay [1] and in assay [2] were 1 to 10 µM and 10 to 30 µM, respectively.
With `Nc1nc2c(-c3c(C(F)(F)F)cc4c(NC5CN(C(=O)C6CN6)C5)nc(OCC56CCCN5CCC6)nc4c3F)ccc(F)c2s1` (stereo not drawn) [Compound 235], the IC50 was 1 to 10 µM in assay [1] and 10 to 30 µM in assay [2].
Taken in the same sequence, the figures for `CC(C)N(c1nc(OC[C@@H]2CCCN2C)nc2c(F)c(-c3ccc(F)c4sc(N)nc34)c(Cl)cc12)C1CNC1` [Compound 180] were 10 to 30 µM and 10 to 30 µM.

As usually defined, the IC50 is the concentration at which inhibition is half-maximal. Read a high IC50 as weaker potency in that assay.

For the origin of these results see patent US20240246954A1, “COMPOSITIONS AND METHODS FOR INHIBITING KRAS” (TheRas, Inc., priority 2021, published 2024).
